Experimental data as given in US7973050B2, “Enantiomeric compounds with antibacterial activity” (Crestone, Inc., priority 2006, dated 2011).
Converted amounts (≈) assume the structure as drawn. Counter-ions that a name gives are not always drawn. Like-named read-outs stand apart in the source and are kept apart here.

Key:
C. difficile [1] = assay: C. difficile-infected hamster survival study; assay type: in vivo
Procedure: Animal studies were performed to determine the efficacy of MetRS inhibitors for treating C. difficile-infections. The MetRS inhibitors tested were 5-[3-((R)-6,8-Dibromo-chroman-4-ylamino)-propylamino]-4H-thieno[3,2-b]pyridine-7-one (both racemic mixture and the R enantiomer) and 5-[3-((R)-8-Bromo-6-chloro-chroman-4-ylamino)-propylamino]-4H-thieno[3,2-b]pyridin-7-one. Also tested was 2-(3-{3,5-Dibromo-2-[2-(4-methyl-thiazol-5-yl)-ethoxy]-benzylamino}-propylamino)-1H-quinolin-4-one.
Results were compared to C. difficile-infected hamsters treated with the conventional antibiotic, vancomycin. Infected hamsters were treated with either a solution or suspension of a MetRS inhibitor at 5 to 50 mg/kg or vancomycin at 2.5, 5 or 25 mg/kg. There were eight hamsters per group with the final endpoint of the experiment being survival. Expired hamsters were examined for GI condition.

rat MetRS = assay: Mammalian MetRS inhibition (selectivity); assay type: biochemical; conditions: mammalian enzyme
C. difficile [2] = assay: MIC90 against C. difficile clinical isolates, agar dilution (CLSI); assay type: cell-based; conditions: Clostridioides difficile, read-out: MIC90 against Clostridium difficile
[3] = target: Clostridium difficile MetRS (Clostridioides difficile, UniProt Q181D9, C642S); assay: C. difficile MetRS inhibition (tRNA charging SPA assay); assay type: biochemical
Procedure: Compounds of the present invention were assayed to determine their ability to inhibit MetRS. Assays were performed as follows:
Each reaction was started by adding 20 μl appropriately diluted pure enzyme (pre-incubated with inhibitor) to 25 μl reaction mix for 10 min at room temperature. The reaction is terminated by the addition of 150 μl 167 mM sodium citrate, pH 2.15 containing phosphodiesterase (PDE) SPA beads (0.833 mg/ml). The binding of the radiolabelled product to the bead brings the isotope into close enough proximity to allow radiation from the tritium to excite the scintillant within the bead. Any unbound radiolabel is not close enough to the scintillant to allow this energy transfer, so no signal is generated. Following termination of the reaction, plates are spun at 2500 rpm for 5 min in a Mistral 3000E plate centrifuge (or alternatively allowed to stand for 1 hour). The assay is conducted in 96-well Optiplates (Packard). Plates are counted on a TopCount. (Packard 96 well counter).
Mixed E. coli MRE 600 tRNA and ATP were purchased from Boehringer-Mannheim, L-[methyl-^3H]methionine and phosphodiesterase scintillation proximity (SPA) beads from Amersham Pharmacia Biotech and other reagents from Sigma.

[4] = system: C. difficile clinical isolates (spore production); assay: C. difficile sporulation on agar with subMIC drug; assay type: cell-based, Clostridium difficile; conditions: 96 hours
[5] = agar dilution, clinical isolates, 24 hours at 35° C. anaerobic, range stated for the group
[6] = range stated for the group of listed examples, read-out: Ki, inhibition of Clostridium difficile MetRS

Chain of Clostridium difficile MetRS (Q181D9 2-645 C642S): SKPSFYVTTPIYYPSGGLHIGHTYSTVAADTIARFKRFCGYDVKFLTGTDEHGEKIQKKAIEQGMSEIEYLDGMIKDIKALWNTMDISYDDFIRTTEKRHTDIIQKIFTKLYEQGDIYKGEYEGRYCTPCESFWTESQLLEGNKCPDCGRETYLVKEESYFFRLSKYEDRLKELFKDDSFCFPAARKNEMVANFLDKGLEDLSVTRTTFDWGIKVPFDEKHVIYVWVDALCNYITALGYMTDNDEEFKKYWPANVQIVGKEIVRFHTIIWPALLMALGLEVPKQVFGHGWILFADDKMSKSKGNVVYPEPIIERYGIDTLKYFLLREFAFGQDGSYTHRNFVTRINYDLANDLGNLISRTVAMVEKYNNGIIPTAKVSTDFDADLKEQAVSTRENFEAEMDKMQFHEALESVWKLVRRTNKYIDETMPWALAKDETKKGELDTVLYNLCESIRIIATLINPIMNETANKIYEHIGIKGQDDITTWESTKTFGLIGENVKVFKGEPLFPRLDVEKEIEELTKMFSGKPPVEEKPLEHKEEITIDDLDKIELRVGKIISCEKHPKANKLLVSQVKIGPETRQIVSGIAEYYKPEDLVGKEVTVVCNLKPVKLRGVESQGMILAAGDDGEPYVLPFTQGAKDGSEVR

SMILES: O=c1cc(NCCCN[C@@H]2CCOc3c(Br)cc(Br)cc32)[nH]c2ccsc12 (single isomer, unassigned) [Example 2, di-hydrochloride]
- efficacy (survival) in infected hamsters, in words (C. difficile [1]; MetRS inhibitor at 5 to 50 mg/kg, solution or suspension): best efficacy
- inhibition of mammalian (rat) MetRS (rat MetRS): no inhibition
- MIC90 (C. difficile [2]; [5]): 0.25 to 4 µg/mL
- Ki [3]: 0.015 to 0.025 nM
- spores (ratio of spores to total cells) at 0.25×MIC ([4]; all strains, 0.25×MIC): < 2%
- spores (ratio of spores to total cells) at 0.5×MIC ([4]; all strains, 0.5×MIC): < 1%
- effect on spore production, in words ([4]; subMIC concentrations): effective in preventing vegetative cells of C. difficile from forming spores

SMILES: O=c1cc(NCCCN[C@H]2CCOc3c(Br)cc(Br)cc32)[nH]c2ccsc12 (single isomer, unassigned) [Example 3, di-hydrochloride]
- Ki [3]: 24 to 80 nM

SMILES: O=c1cc(NCCCN[C@@H]2CCOc3c(Br)cc(Cl)cc32)[nH]c2ccsc12 (single isomer, unassigned) [Example 4, di-hydrochloride]
- inhibition of mammalian (rat) MetRS (rat MetRS): no inhibition
- MIC90 (C. difficile [2]; 24 h): 0.25 to 4 µg/mL
- Ki [3]: 0.015 to 0.025 nM

SMILES: O=c1cc(NCCCN[C@H]2CCOc3c(Br)cc(Cl)cc32)[nH]c2ccsc12 (single isomer, unassigned) [Example 5, di-hydrochloride]
- Ki [3]: 24 to 80 nM

SMILES: O=c1cc(NCCCN[C@@H]2CCOc3c(Br)cc(Br)cc32)[nH]c2ccccc12 (single isomer, unassigned) [Example 6, di-hydrochloride]
- inhibition of mammalian (rat) MetRS (rat MetRS): no inhibition
- MIC90 (C. difficile [2]; 24 h): 0.25 to 4 µg/mL
- Ki [3]: 0.015 to 0.025 nM

SMILES: O=c1cc(NCCCN[C@H]2CCOc3c(Br)cc(Br)cc32)[nH]c2ccccc12 (single isomer, unassigned) [Example 7, di-hydrochloride]
- Ki [3]: 24 to 80 nM

SMILES: O=c1cc(NCCCN[C@@H]2CCNc3c(Br)cc(Br)cc32)[nH]c2ccsc12 (single isomer, unassigned) [Example 8, tri-hydrochloride]
- inhibition of mammalian (rat) MetRS (rat MetRS): no inhibition
- MIC90 (C. difficile [2]; 24 h): 0.25 to 4 µg/mL
- Ki [3]: 0.015 to 0.025 nM

SMILES: O=c1cc(NCCCN[C@H]2CCNc3c(Br)cc(Br)cc32)[nH]c2ccsc12 (single isomer, unassigned) [Example 9, tri-hydrochloride]
- Ki [3]: 24 to 80 nM

SMILES: O=c1cc(NCCCN[C@@H]2CCCc3c(Br)cc(Br)cc32)[nH]c2ccsc12 [Example 10, 5-[3-((R)-5,7-Dibromo-1,2,3,4-tetrahydro-naphthalen-1-ylamino)-propylamino]-4H-thieno[3,2-b]pyridine-7-one]
- inhibition of mammalian (rat) MetRS (rat MetRS): no inhibition
- MIC90 (C. difficile [2]; [5]): 0.25 to 4 µg/mL (≈ 0.489 to 7.82 µM)
- Ki [3, 6]: 0.015 to 0.025 nM

SMILES: O=c1cc(NCCCN[C@@H]2COc3c(Br)cc(Br)cc32)[nH]c2ccsc12 [Example 11, 5-[3-((S)-5,7-Dibromo-2,3-dihydro-benzofuran-3-ylamino)-propylamino]-4H-thieno[3,2-b]pyridine-7-one]
- inhibition of mammalian (rat) MetRS (rat MetRS): no inhibition
- MIC90 (C. difficile [2]; [5]): 0.25 to 4 µg/mL (≈ 0.501 to 8.01 µM)
- Ki [3, 6]: 0.015 to 0.025 nM

SMILES: O=c1cc(NCCCN[C@H]2COc3c(Br)cc(Br)cc32)[nH]c2ccsc12 [Example 12, 5-[3-((R)-5,7-Dibromo-2,3-dihydro-benzofuran-3-ylamino)-propylamino]-4H-thieno[3,2-b]pyridine-7-one]
- Ki [3, 6]: 24 to 80 nM

SMILES: Cc1ncc([N+](=O)[O-])n1CCO [metronidazole, reference compound]
- spores after exposure to subMIC concentrations ([4]; all tested strains, subMIC): up to 100%

SMILES: CN[C@H](CC(C)C)C(=O)N[C@H]1C(=O)N[C@@H](CC(N)=O)C(=O)N[C@H]2C(=O)N[C@H]3C(=O)N[C@H](C(=O)N[C@H](C(=O)O)c4cc(O)cc(O)c4-c4cc3ccc4O)[C@H](O)c3ccc(c(Cl)c3)Oc3cc2cc(c3O[C@@H]2O[C@H](CO)[C@@H](O)[C@H](O)[C@H]2O[C@H]2C[C@](C)(N)[C@H](O)[C@H](C)O2)Oc2ccc(cc2Cl)[C@H]1O [vancomycin, reference compound]
- survival on Day 28 (vancomycin comparator) (C. difficile [1]; C. difficile-infected hamsters, vancomycin at 2.5, 5 or 25 mg/kg): 0-10%
